Measured values published in the supplement of paper PMC6045584.
± gives the standard deviation of the averaged measurements.

Experiments:
NUTLIN3 [1] = compound: T1, COc1ccc(C2=N[C@@H](c3ccc(Cl)cc3)[C@@H](c3ccc(Cl)cc3)N2C(=O)N2CCNC(=O)C2)c(OC(C)C)c1 [NUTLIN3]; experiment: surviving fraction relative to DMSO-only wells; higher = less growth inhibition; conditions: exposure time: 5 days
Procedure, shortened: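 Log-phase tumour cells were seeded at 250–500 per well in 384-well plates and, from 24 hours after seeding, exposed continuously for five days to inhibitors at 0.5, 1, 5, 10, 50, 100, 500 and 1000 nM. Surviving fraction is CellTiter-Glo luminescence normalised to the median of DMSO-only wells. Luminescence was measured after 10 minutes at room temperature, and only lines screened three times with replicate Pearson r >0.7 and median Z' >0.3 were kept.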

DECITABINE = compound: Nc1ncn([C@H]2C[C@H](O)[C@@H](CO)O2)c(=O)n1 [DECITABINE]; experiment: area under dose-response curve of surviving fraction (unscaled, Aref=0) (surviving fraction x log10(nM)); higher = more resistant; conditions: exposure time: 5 days; dose range 0.5-1000 nM
Procedure, shortened: (§1)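 Surviving fractions were fitted by 3-parameter logistic regression in the drc R package to give dose-response survival curves. They came from tumour cell lines treated for five days with eight inhibitor concentrations from 0.5 to 1000 nM and read by CellTiter-Glo luminescence against DMSO-only wells. The area under the curve is the unscaled activity area. It was calculated over log10 dose with Aref = 0.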

SALINOMYCIN = compound: CC[C@@H](C(=O)[C@@H](C)[C@@H](O)[C@H](C)[C@@H]1O[C@@H]([C@@H](CC)C(=O)O)CC[C@@H]1C)[C@H]1O[C@]2(C=C[C@@H](O)[C@]3(CC[C@@](C)([C@H]4CC[C@](O)(CC)[C@H](C)O4)O3)O2)[C@H](C)C[C@@H]1C [SALINOMYCIN]; experiment: as above; conditions: exposure time: 5 days; dose range 0.5-1000 nM
Procedure, shortened: as §1

[2] = compound: CCN(CC)CCCCNc1ncc2cc(-c3cc(OC)cc(OC)c3)c(NC(=O)NC(C)(C)C)nc2n1; experiment: as above; conditions: exposure time: 5 days; dose range 0.5-1000 nM
Procedure, shortened: as §1

FLAVOPIRIDOL = compound: CN1CC[C@H](c2c(O)cc(O)c3c(=O)cc(-c4ccccc4Cl)oc23)[C@H](O)C1 [FLAVOPIRIDOL]; experiment: as above; conditions: exposure time: 5 days; dose range 0.5-1000 nM
Procedure, shortened: as §1

DOXORUBICIN = compound: COc1cccc2c1C(=O)c1c(O)c3c(c(O)c1C2=O)C[C@@](O)(C(=O)CO)C[C@@H]3O[C@H]1C[C@H](N)[C@H](O)[C@H](C)O1 [DOXORUBICIN]; experiment: as above; conditions: exposure time: 5 days; dose range 0.5-1000 nM
Procedure, shortened: as §1

NUTLIN3 [3] = compound: T1, NUTLIN3; experiment: as above; conditions: exposure time: 5 days; dose range 0.5-1000 nM
Procedure, shortened: as §1

ABT-737 = compound: CN(C)CC[C@H](CSc1ccccc1)Nc1ccc(S(=O)(=O)NC(=O)c2ccc(N3CCN(Cc4ccccc4-c4ccc(Cl)cc4)CC3)cc2)cc1[N+](=O)[O-] [ABT-737]; experiment: as above; conditions: exposure time: 5 days; dose range 0.5-1000 nM
Procedure, shortened: as §1

2-METHOXYESTRADIOL = compound: COc1cc2c(cc1O)CC[C@@H]1[C@@H]2CC[C@]2(C)[C@@H](O)CC[C@@H]12 [2-METHOXYESTRADIOL]; experiment: as above; conditions: exposure time: 5 days; dose range 0.5-1000 nM
Procedure, shortened: as §1

FLUOROURACIL = compound: O=c1[nH]cc(F)c(=O)[nH]1 [FLUOROURACIL]; experiment: as above; conditions: exposure time: 5 days; dose range 0.5-1000 nM
Procedure, shortened: as §1

VISMODEGIB = compound: CS(=O)(=O)c1ccc(C(=O)Nc2ccc(Cl)c(-c3ccccn3)c2)c(Cl)c1 [VISMODEGIB]; experiment: as above; conditions: exposure time: 5 days; dose range 0.5-1000 nM
Procedure, shortened: as §1

17-AAG = compound: C=CCNC1=C2C[C@@H](C)C[C@H](OC)[C@H](O)[C@@H](C)/C=C(\C)[C@H](OC(N)=O)[C@@H](OC)/C=C\C=C(/C)C(=O)NC(=CC1=O)C2=O [17-AAG]; experiment: as above; conditions: exposure time: 5 days; dose range 0.5-1000 nM
Procedure, shortened: as §1

RESVERATROL = compound: Oc1ccc(/C=C/c2cc(O)cc(O)c2)cc1 [RESVERATROL]; experiment: as above; conditions: exposure time: 5 days; dose range 0.5-1000 nM
Procedure, shortened: as §1

| Test System | surviving fraction (NUTLIN3 [1]; 0.5 nM) | surviving fraction (NUTLIN3 [1]; 1 nM) | surviving fraction (NUTLIN3 [1]; 5 nM) | surviving fraction (NUTLIN3 [1]; 10 nM) | surviving fraction (NUTLIN3 [1]; 50 nM) | surviving fraction (NUTLIN3 [1]; 100 nM) | surviving fraction (NUTLIN3 [1]; 500 nM) | surviving fraction (NUTLIN3 [1]; 1000 nM) | area under dose-response curve (DECITABINE) | area under dose-response curve (SALINOMYCIN) | area under dose-response curve [2] | area under dose-response curve (FLAVOPIRIDOL) | area under dose-response curve (DOXORUBICIN) | area under dose-response curve (NUTLIN3 [3]) | area under dose-response curve (ABT-737) | area under dose-response curve (2-METHOXYESTRADIOL) | area under dose-response curve (FLUOROURACIL) | area under dose-response curve (VISMODEGIB) | area under dose-response curve (17-AAG) | area under dose-response curve (RESVERATROL) |
| --- | --- | --- | --- | --- | --- | --- | --- | --- | --- | --- | --- | --- | --- | --- | --- | --- | --- | --- | --- | --- |
| COLO320DM LARGE INTESTINE | 1.11 ± 0.093 | 1.07 ± 0.019 | 1.08 ± 0.079 | 1.1 ± 0.16 | 1.15 ± 0.16 | 1.21 ± 0.069 | 1.12 ± 0.065 | 1.19 ± 0.17 | 3.27 | 2.89 | 3.53 | 2.06 | 3.07 | 4.13 | 3.69 | 2.88 | 2.87 | 3.45 | 2.98 | 3.54 |
| DU4475 BREAST | 0.825 ± 0.3 | 0.909 ± 0.2 | 1 ± 0.52 | 1.13 ± 0.49 | 0.965 ± 0.39 | 1.12 ± 0.51 | 0.832 ± 0.42 | 0.673 ± 0.47 | 1.99 | 2.43 | 2.52 | 1.69 | 0.979 | 3.2 | 2.54 | 2.52 | 3.34 | 3.21 | 1.26 | 3.25 |
| HCC1806 BREAST | 1.07 ± 0.079 | 1.04 ± 0.1 | 1.07 ± 0.15 | 1.08 ± 0.13 | 1.07 ± 0.1 | 1.05 ± 0.17 | 1.05 ± 0.16 | 1.17 ± 0.2 | 1.27 | 2.77 | 3.58 | 2.06 | 1.3 | 3.55 | 3.72 | 3.46 | 3.09 | 3.23 | 0.894 | 3.7 |
| HCC1954 BREAST | 1.17 ± 0.071 | 1.16 ± 0.08 | 1.11 ± 0.07 | 1.01 ± 0.36 | 1.22 ± 0.26 | 1.14 ± 0.064 | 1.15 ± 0.051 | 0.99 ± 0.036 | 4.03 | 2.46 | 3.28 | 1.99 | 1.78 | 3.64 | 3.03 | 2.85 | 2.96 | 2.26 | 0.46 | 3.7 |
| HCT15 LARGE INTESTINE | 1.01 ± 0.038 | 1.01 ± 0.013 | 1.01 ± 0.018 | 0.992 ± 0.013 | 1.05 ± 0.034 | 1.07 ± 0.061 | 1.04 ± 0.056 | 1.01 ± 0.017 | 3.19 | 2.74 | 3.28 | 2.01 | 2.07 | 3.38 | 3.46 | 2.65 | 2.73 | 3.26 | 1.85 | 3.39 |
| HELA CERVIX | 1.01 ± 0.092 | 1 ± 0.039 | 1 ± 0.025 | 0.984 ± 0.043 | 1.06 ± 0.044 | 1.07 ± 0.041 | 1.08 ± 0.03 | 1.13 ± 0.039 | 3.41 | 3.17 | 3.33 | 2.54 | 1.69 | 3.38 | 3.64 | 3.11 | 3.55 | 3.49 | 2.37 | 3.64 |
| HOSMNG BONE | 1.04 ± 0.056 | 1.03 ± 0.033 | 0.979 ± 0.098 | 0.975 ± 0.076 | 1.09 ± 0.025 | 1.12 ± 0.013 | 1.12 ± 0.026 | 1.13 ± 0.023 | 3.51 | 3.21 | 3.33 | 2.35 | 2.25 | 3.48 | 3.05 | 3.07 | 3.41 | 3.19 | 2.42 | 2.77 |
| HSSYII SYNOVIAL | 0.951 ± 0.02 | 0.904 ± 0.051 | 0.976 ± 0.041 | 0.9313 ± 0.0089 | 0.942 ± 0.053 | 0.91 ± 0.035 | 0.676 ± 0.058 | 0.43 ± 0.04 | 2.67 | 2.22 | 2.02 | 2.06 | 0.844 | 2.98 | 2.95 | 2.57 | 3.07 | 2.83 | 2.27 | 3.27 |
| HU09 BONE | 1.03 ± 0.17 | 0.933 ± 0.1 | 1.02 ± 0.14 | 1.03 ± 0.059 | 1.04 ± 0.069 | 1.08 ± 0.11 | 1.04 ± 0.14 | 1.03 ± 0.085 | 3.33 | 2.91 | 3.06 | 2.06 | 1.38 | 3.4 | 3.04 | 3.01 | 3.06 | 3.11 | 1.08 | 3.57 |
| JIMT1 BREAST | 0.985 ± 0.011 | 0.976 ± 0.018 | 1.01 ± 0.037 | 0.9965 ± 0.0076 | 1.08 ± 0.037 | 1.06 ± 0.016 | 1.06 ± 0.043 | 1.04 ± 0.018 | 2.86 | 2.96 | 3.25 | 2.19 | 2.21 | 3.38 | 3.44 | 3.13 | 3.03 | 3 | 1.58 | 3.4 |
| KPD BONE | 0.968 ± 0.042 | 0.966 ± 0.049 | 1.05 ± 0.064 | 0.987 ± 0.023 | 1.03 ± 0.061 | 1.01 ± 0.098 | 1.01 ± 0.017 | 0.962 ± 0.075 | 2.08 | 2.62 | 3.24 | 2.05 | 1.78 | 3.29 | 3.2 | 3.16 | 3.27 | 3.27 | 1.75 | 3.44 |
| LM7 BONE | 0.99 ± 0.075 | 0.977 ± 0.082 | 1.05 ± 0.025 | 1.07 ± 0.14 | 0.987 ± 0.065 | 1.08 ± 0.046 | 1.03 ± 0.1 | 0.994 ± 0.05 | 3.06 | 3.08 | 3.22 | 2.3 | 1.78 | 3.39 | 3.48 | 3.02 | 2.96 | 3.28 | 1.46 | 3.63 |
